Patent publication US5712300A, “Hydroxamic acid derivatives useful for the treatment of diseases related to connective tissue degradation” (priority 1997, dated 1998)

Assays:
Assay type in all cases: biochemical
[1] = molecular target: Stromelysin (Homo sapiens, UniProt P08254); experiment: MMP inhibition by particle concentration fluorescence technique (stromelysin); details: pH 7.5; 15 min enzyme preincubation; substrate 1-3 h at room temperature; read-out: MMP Inhibition Constants, Stromelysin Ki
Excerpt: An inhibitor binds to MMP enzymes prevents the degradation of a substrate of stromelysin, gelatinase, or collagenase. The substrate is attached with a fluorescein and a biotin. The intact substrate then binds to an avidin-coated particle via the biotin moiety. Once the particle is washed and dried, a fluorescent signal is generated since the fluorescent group is attached to the particle. Without an inhibitor present, the substrate is degraded by MMP enzymes and the fluorescein group is removed, therefore, no fluorescent signal can be detected. […] Serial two-fold dilutions of each compound are prepared. A concentrated, activated enzyme solution is transferred into each plate of the testing compounds, and the mixture is incubated at room temperature for 15 minutes.

[2] = molecular target: T1, Collagenase (Homo sapiens, UniProt P03956); experiment: MMP inhibition by particle concentration fluorescence technique (collagenase); details: pH 7.5; 15 min enzyme preincubation; substrate 1-3 h at room temperature; read-out: MMP Inhibition Constants, Collagenase Ki
T1 sequence (P03956 100-469): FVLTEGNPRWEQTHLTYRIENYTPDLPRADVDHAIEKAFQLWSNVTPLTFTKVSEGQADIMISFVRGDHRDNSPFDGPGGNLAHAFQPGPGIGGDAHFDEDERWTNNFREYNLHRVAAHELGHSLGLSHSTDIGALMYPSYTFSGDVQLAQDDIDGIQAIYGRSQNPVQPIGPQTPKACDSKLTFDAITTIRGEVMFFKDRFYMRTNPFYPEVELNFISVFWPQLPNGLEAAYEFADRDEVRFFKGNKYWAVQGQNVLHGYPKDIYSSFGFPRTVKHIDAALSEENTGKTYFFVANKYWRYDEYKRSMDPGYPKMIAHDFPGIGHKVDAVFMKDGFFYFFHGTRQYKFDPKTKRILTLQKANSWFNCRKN
Method: (§1) Inhibitory activity is evaluated in one or more of the MMP enzymes (stromelysin, gelatinase, and collagenase) in vitro using a particle concentration fluorescence techniques. An inhibitor binds to MMP enzymes prevents the degradation of a substrate of stromelysin, gelatinase, or collagenase. The substrate is attached with a fluorescein and a biotin. The intact substrate then binds to an avidin-coated particle via the biotin moiety. Once the particle is washed and dried, a fluorescent signal is generated since the fluorescent group is attached to the particle. Without an inhibitor present, the substrate is degraded by MMP enzymes and the fluorescein group is removed, therefore, no fluorescent signal can be detected. Testing compounds are dissolved in DMSO to the desired concentration, then the solutions are diluted to 1:5 with MMP buffer (50 mM Tris-HCl, pH 7.5; 150 mM NaCl; 0.02% NAN3). Serial two-fold dilutions of each compound are prepared. A concentrated, activated enzyme solution is transferred into each plate of the testing compounds, and the mixture is incubated at room temperature for 15 minutes. Thawed MMP substrate is then added into all plates, and the plates are incubate in the dark for 1-3 hours at room temperature. At this point, the substrate mixture is reacted with 0.1% avidin-coated polystyrene particles.

[3] = molecular target: Gelatinase; experiment: MMP inhibition by particle concentration fluorescence technique (gelatinase); details: pH 7.5; 15 min enzyme preincubation; substrate 1-3 h at room temperature; read-out: MMP Inhibition Constants, Gelatinase Ki
Method: as §1

Chain of Stromelysin (P08254 100-477): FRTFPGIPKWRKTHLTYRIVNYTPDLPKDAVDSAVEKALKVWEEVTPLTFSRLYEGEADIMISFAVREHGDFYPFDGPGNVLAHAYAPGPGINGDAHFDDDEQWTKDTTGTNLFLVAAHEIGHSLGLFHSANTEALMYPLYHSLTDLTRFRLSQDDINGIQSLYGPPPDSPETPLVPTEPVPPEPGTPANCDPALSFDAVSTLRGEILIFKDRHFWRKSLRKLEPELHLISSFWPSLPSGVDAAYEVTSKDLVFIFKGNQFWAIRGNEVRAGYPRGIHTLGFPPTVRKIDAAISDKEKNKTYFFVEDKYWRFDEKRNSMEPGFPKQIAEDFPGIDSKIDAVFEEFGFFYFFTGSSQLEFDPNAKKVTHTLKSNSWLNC

SMILES	Ki [1]	Ki [2]	Ki [3]
CC(C)CC1(CC(=O)NO)CCN(Cc2ccccc2)C1=O (stereo not drawn) [Example 23, N-Hydroxy-3-(2-methylpropyl)-2-oxo-1-(phenylmethyl)-3-pyrrolidineacetamide]	4190 nM	453 nM	1560 nM
CC(C)CC1(C(C)C(=O)NO)CCN(CCc2ccccc2)C1=O (stereo not drawn) [Example 3, N-Hydroxy-α-methyl-3-(2-methylpropyl)-2-oxo-1-(2-phenylethyl)-3-pyrrolidineacetamide]	10900 nM	4230 nM	11700 nM
CNC(=O)[C@H](Cc1ccccc1)N1CC[C@@](CCC(C)C)(CC(=O)NO)C1=O [Example 34, [S-(R*,R*)]-N^3 -Hydroxy-N^1-methyl-3-(3-methylbutyl)-2-oxo-α^1-(phenylmethyl)-1,3-pyrrolidinediacetamide]	4140 nM	22 nM	31 nM
CC(C)C[C@@]1(CC(=O)NO)CCN([C@@H](Cc2ccccc2)C(=O)NC2CCN(Cc3ccccc3)CC2)C1=O [Example 43, [S-(R*,R*)]-N^3 -Hydroxy-3-(2-methylpropyl)-2-oxo-α^1-(phenylmethyl)-N^1-[1-(phenylmethyl)-4-piperdinyl]-1,3-pyrrolidinediacetamide]	1800 nM	2.36 nM	2.3 nM
CNC(=O)[C@H](Cc1ccccc1)N1CC[C@@](CC(C)C)([C@@H](CCN2C(=O)c3ccccc3C2=O)C(=O)NO)C1=O (relative stereo) [Example 29, [R,R-(R*,R*)]-α^3-[2-(1,3-Dihydro-1,3-dioxo-2H-isoindol-2-yl)ethyl]-N^3-hydroxy-N^1-methyl-3-(2-methylpropyl)-2-oxo-α^1-(phenylmethyl)-1,3-pyrrolidinediacetamide]	570 nM	484 nM	981 nM
CC(C)C[C@@]1([C@@H](CCN2C(=O)c3ccccc3S2(=O)=O)C(=O)NO)CCN(CCc2ccccc2)C1=O (relative stereo) [Example 69, α-[2-(o-benzoic sulfimide)ethyl]-N-hydroxy-3-(2-methylpropyl)-2-oxo-1-(2-phenylethyl)3-pyrrolidineacetamide]	214 nM	1200 nM	498 nM
CC(C)C[C@@]1([C@@H](CCN2Cc3cc(F)ccc3C2=O)C(=O)NO)CCN(CCc2ccccc2)C1=O [Example 88, [R-(R*,S*)]-5-Fluoro-1,3-dihydro-N-hydroxy-α-[3-(2-methylpropyl)-2-oxo-1-(2-phenylethyl)-3-pyrrolidinyl]-1-oxo-2H-isoindole-2-butanamide]	288 nM	326 nM	62 nM
CNC(=O)[C@H](Cc1ccccc1)N1CC[C@](CC(=O)NO)(CC(C)C)C1=O [Example 30, [S-(R*,R*)]-N^3 -Hydroxy-N^1-methyl-3-(2-methylpropyl)-2-oxo-α^1-(phenylmethyl)-1,3-pyrrolidinediacetamide]	1050 nM	16 nM	24 nM
CC(C)C[C@@]1(CC(=O)NO)CCN([C@@H](Cc2ccccc2)C(=O)Nc2ccccn2)C1=O [Example 57, [S-(R*,R*)]-N^3 -Hydroxy-3-(2-methylpropyl)-2-oxo-α^1-(phenylmethyl)-N^1-2-pyridinyl-1,3-pyrrolidinediacetamide]	75 nM	12 nM	9.5 nM
CC(C)C[C@@H](C(=O)Nc1ccccn1)N1CC[C@](CC(=O)NO)(CC(C)C)C1=O [Example 49, [S-(R*,R*)]-N^3 -Hydroxy-α^1,3-bis(2-methylpropyl)-2-oxo-N^1-2-pyridinyl-1,3-pyrrolidinediacetamide]	138 nM	85 nM	61 nM
CC(C)CC1(CC(=O)NO)CCN(CCc2ccccc2)C1=O (stereo not drawn) [Example 1, N-Hydroxy-3-(2-methylpropyl)-2-oxo-1-(2-phenylethyl)-3-pyrrolidineacetamide]	27200 nM	2300 nM	3550 nM
CC(C)C[C@@]1([C@@H](CCNC(=O)c2cccc([N+](=O)[O-])c2)C(=O)NO)CCN(CCc2ccccc2)C1=O (relative stereo) [Example 76, N-Hydroxy-3-(2-methylpropyl)-α-[2-[(3-nitrobenzoyl)amino]ethyl]-2-oxo-1-(2-phenylethyl)-3-pyrrolidineacetamide]	10800 nM	298 nM	3300 nM
CC(C)C[C@@]1([C@@H](CCNC(=O)c2ccc(-c3ccccc3)cc2)C(=O)NO)CCN(CCc2ccccc2)C1=O (relative stereo) [Example 79, α-[2-[(4-Biphenylcarbonyl)amino]ethyl]-N-hydroxy-3-(2-methylpropyl)-2-oxo-1-(2-phenylethyl)-3-pyrrolidineacetamide]	38 nM	339 nM	1.77 nM
COc1ccc(S(=O)(=O)NCC[C@@H](C(=O)NO)[C@]2(CC(C)C)CCN(CCc3ccccc3)C2=O)cc1 (relative stereo) [Example 82, N-Hydroxy-α-[2-[[(4-methoxyphenyl)sulfonyl]amino]ethyl]-3-(2-methylpropyl)-2-oxo-1-(2-phenylethyl)-3-pyrrolidineacetamide]	379 nM	2400 nM	878 nM
CC(C)C[C@@]1([C@@H](CCN2Cc3ccccc3C2=O)C(=O)NO)CCN(CCc2ccccc2)C1=O (relative stereo) [Example 86, 1,3-Dihydro-N-hydroxy-α-[8-(2-methylpropyl)-2-oxo-1-(2-phenylethyl)-3-pyrrolidinyl]-1-oxo-2H-isoindole-2-butanamide]	102 nM	647 nM	46 nM
CC(C)C[C@@]1(CC(=O)NO)CCN([C@@H](Cc2ccccc2)C(=O)Nc2ccc(F)cc2)C1=O [Example 42, [S-(R*,R*)]-N^1-(4-Fluorophenyl)-N^3-hydroxy-3-(2-methylpropyl)-2-oxo-α^1-(phenylmethyl)-1,3-pyrrolidinediacetamide]	25.5 nM	2.44 nM	5.4 nM
CC(C)C[C@@]1([C@@H](CCN2C(=O)c3ccc(C(F)(F)F)cc3C2=O)C(=O)NO)CCN(CCc2ccccc2)C1=O (relative stereo) [Example 65, N-Hydroxy-3-(2-methylpropyl)-2-oxo-1-(2-phenylethyl)-α-[2-(5-trifluoromethyl-1,3-dihydro-1,3-dioxo-2H-isoindol-2-yl)ethyl]-3-pyrrolidineacetamide]	1050 nM	510 nM	227 nM
CC(C)C[C@@]1([C@@H](CCN2C(=O)c3ccc([N+](=O)[O-])cc3C2=O)C(=O)NO)CCN(CCc2ccccc2)C1=O (relative stereo) [Example 11, N-Hydroxy-3-(2-methylpropyl)-α-[2-(5-nitro-1,3-dihydro-1,3-dioxo-2H-isoindol-2-yl)ethyl]-2-oxo-1-(2-phenylethyl)-3-pyrrolidineacetamide]	1020 nM	73 nM	498 nM
CC(C)C[C@@]1(CC(=O)NO)CCN([C@H](C(=O)Nc2ccc(F)cc2)C2CCCCC2)C1=O [Example 60, [S-(R*,R*)]-α^1 -Cyclohexyl-N^1-(4-fluorophenyl)-N^3-hydroxy-3-(2-methylpropyl)-2-oxo-1,3-pyrrolidinediacetamide]	19 nM	18 nM	12.3 nM
CC(C)C[C@@]1(CC(=O)NO)CCN([C@H](C(=O)Nc2ccccn2)C2CCCCC2)C1=O [Example 51, [S-(R*,R*)]-α^1 -Cyclohexyl-N^3-hydroxy-3-(2-methylpropyl)-2-oxo-N^1-2-pyridinyl-1,3-pyrrolidinediacetamide]	84 nM	42.2 nM	23 nM
